This note sets out measurements from patent US9688645B2, “Macrocyclic urea and sulfamide derivatives as inhibitors of TAFIa” (SANOFI, priority 2008, dated 2017).

This assay concerns the target TAFIa (Homo sapiens (Human), UniProt Q96IY4). The assay is described as follows: TAFIa inhibition, Actichrome plasma TAFI Activity Kit (American Diagnostica). The format is biochemical. The conditions noted are these: chromogenic read-out at 420 nm, 15 min preincubation at room temperature, pH 7.4, duplicate determination. As to the method:
The prepared substances were tested for TAFIa inhibition using the Actichrome plasma TAFI Activity Kit from American Diagnostica (Pr. No. 874). This entailed adding 28 μl of assay buffer (20 mM Hepes, 150 mM NaCl, pH 7.4) and 10 μl of TAFIa (American Diagnostica Pr. No. 874TAFIA; 2.5 μg/ml) to 2 μl of 2.5 mM DMSO solution of the substance and incubating in a 96 half-well microtiter plate at room temperature for 15 minutes. The enzyme reaction was started by adding 10 μl of TAFIa developer (prediluted 1:2 with assay buffer). The time course of the reaction was followed at 420 nm in a microtiter plate reader (SpectraMax plus 384; Molecular Devices) for 15 minutes.
The IC50 values were calculated from the averaged values (duplicate determination) of serial dilutions of the substance with the aid of the Softmax Pro software (version 4.8; Molecular Devices).

TAFIa, sequence (Q96IY4 115-423): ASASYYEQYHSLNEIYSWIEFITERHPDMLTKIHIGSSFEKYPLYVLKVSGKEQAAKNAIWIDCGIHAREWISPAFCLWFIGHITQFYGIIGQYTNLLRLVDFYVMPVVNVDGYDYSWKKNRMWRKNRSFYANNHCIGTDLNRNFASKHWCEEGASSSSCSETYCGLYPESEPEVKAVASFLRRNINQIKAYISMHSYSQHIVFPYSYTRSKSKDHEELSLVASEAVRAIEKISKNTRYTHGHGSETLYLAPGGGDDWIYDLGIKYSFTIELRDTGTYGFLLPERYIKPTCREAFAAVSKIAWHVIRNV

In the case of `CC(C)[C@H]1COCCCCc2ccc(cc2)C[C@@H](NC(=O)N[C@@H](Cc2ccc(N)nc2)C(=O)O)C(=O)N1` [Example 6-2, (S)-3-(6-Aminopyridin-3-yl)-2-[3-((3R,6S)-6-isopropyl-4-oxo-8-oxa-5-azabicyclo[11.2.2]heptadeca-1(16),13(17), 14-trien-3-yl)ureido]propionic acid], the IC50 stood at 21 nM.

With `CC(C)[C@H]1COCCCCCCCC[C@@H](NC(=O)N[C@@H](CCCCN)C(=O)O)C(=O)N1` [Example 4-1, (S)-6-Amino-2-[3-((3S,6R)-3-isopropyl-5-oxo-1-oxa-4-azacyclotetradec-6-yl)ureido]hexanoic acid], the IC50 is 17 nM.

Consider `NCCCC[C@H](NC(=O)N[C@@H]1Cc2ccc(cc2)OCCCCOC[C@H](Cc2ccccc2)NC1=O)C(=O)O` [Example 1-5, (S)-6-Amino-2-[3-((9S,12R)-9-benzyl-11-oxo-2,7-dioxa-10-azabicyclo[12.2.2]octadeca-1(17),14(18),15-trien-12-yl)ureido]hexanoic acid], for which the IC50 was determined as 105 nM.

In the case of `CC(C)[C@H]1COC/C=C/COc2ccc(cc2)C[C@@H](NC(=O)N[C@@H](CCCCN)C(=O)O)C(=O)N1` [Example 3-1, (S)-6-Amino-2-[3-((E)-(9S,12R)-9-isopropyl-11-oxo-2,7-dioxa-10-azabicyclo[12.2.2]octadeca-1(17),4,14(18), 15-tetraen-12-yl)ureido]hexanoic acid], the IC50 is 7.7 nM.

As for `CC(C)[C@H]1COCCC(=O)Nc2ccc(cc2)C[C@@H](NC(=O)N[C@@H](CCCCN)C(=O)O)C(=O)N1` [Example 7-1, (S)-6-Amino-2-[3-((8S,11R)-8-isopropyl-3,10-dioxo-6-oxa-2,9-diazabicyclo[11.2.2]heptadeca-1(16),13(17),14-trien-11-yl)ureido]hexanoic acid], the IC50 was 22 nM.

Consider `CC(C)[C@H]1COCCNC(=O)c2ccc(cc2)C[C@@H](NC(=O)N[C@@H](Cc2ccc(N)nc2)C(=O)O)C(=O)N1` [Example 7-4, (S)-3-(6-Aminopyridin-3-yl)-2-[3-((8S,11R)-8-isopropyl-2,10-dioxo-6-oxa-3,9-diazabicyclo[11.2.2]heptadeca-1(16),13(17), 14-trien-11-yl)ureido]propionic acid], for which the IC50 was 40 nM.

For the compound `CC(C)[C@H]1COCCCCOc2ccc(cc2)C[C@@H](NC(=O)N[C@@H](CS(=O)(=O)CCN)C(=O)O)C(=O)N1` [Example 5-1, (R)-3-(2-Aminoethanesulfonyl)-2-[3-((9S,12R)-9-isopropyl-11-oxo-2,7-dioxa-10-azabicyclo[12.2.2]octadeca-1(17),14(18), 15-trien-12-yl)ureido]propionic acid], the IC50 is 649 nM.

Regarding `CC(C)(C)[C@H]1COCCCCOc2ccc(cc2)C[C@@H](NC(=O)N[C@@H](CCCCN)C(=O)O)C(=O)N1` [Example 1-9, (S)-6-Amino-2-[3-((9S,12R)-9-tert-butyl-11-oxo-2,7-dioxa-10-azabicyclo[12.2.2]octadeca-1(17),14(18),15-trien-12-yl)ureido]hexanoic acid], the IC50 is 19 nM.

For the compound `NCCCC[C@H](NC(=O)N[C@@H]1Cc2ccc(cc2)OCCCCOCCNC1=O)C(=O)O` [Example 1-2, (S)-6-Amino-2-[3-((R)-11-oxo-2,7-dioxa-10-azabicyclo[12.2.2]octadeca-1(17),14(18),15-trien12-yl)ureido]hexanoic acid], the IC50 came to 9040 nM.

Take `CC(C)[C@H]1COCCCCCCCCOc2ccc(cc2)C[C@@H](NC(=O)N[C@@H](CCCCN)C(=O)O)C(=O)N1` [Example 2-1, (S)-6-Amino-2-[3-((13S,16R)-13-isopropyl-15-oxo-2,11-dioxa-14-azabicyclo[16.2.2]docosa-1(21), 18(22), 19-trien-16-yl)ureido]hexanoic acid]: the IC50 turned out to be 8.8 nM.

`CC[C@H]1COCCCCOc2ccc(cc2)C[C@@H](NC(=O)N[C@@H](CCCCN)C(=O)O)C(=O)N1` [Example 1-7, (S)-6-Amino-2-[3-((9S,12R)-9-ethyl-11-oxo-2,7-dioxa-10-azabicyclo[12.2.2]octadeca-1(17),14(18),15-trien-12-yl)ureido]hexanoic acid]: the IC50 was found to be 49 nM.

Usually IC50 stands for the concentration at which inhibition is half-maximal.
